Results reported in patent US20240209005A1, “BICYCLIC HETEROARYL BORONATE DERIVATIVES AS ECTONUCLEOTIDE PYROPHOSPHATASE PHOSPHODIESTERASE 1 INHIBITORS” (RIBOSCIENCE LLC, priority 2021, published 2024).
Structures can show the parent of a compound that is named as a salt.

The compounds below were run against T1, ENPP1 (Homo sapiens, UniProt P22413) (assay: Measurement of pNP-TMP hydrolysis by ENPP1). Details: purified ENPP1, pNP-TMP substrate 500 μM, KM 232 μM; Ki calculated from IC50 by Cheng-Prusoff.
T1 sequence (P22413 1-925): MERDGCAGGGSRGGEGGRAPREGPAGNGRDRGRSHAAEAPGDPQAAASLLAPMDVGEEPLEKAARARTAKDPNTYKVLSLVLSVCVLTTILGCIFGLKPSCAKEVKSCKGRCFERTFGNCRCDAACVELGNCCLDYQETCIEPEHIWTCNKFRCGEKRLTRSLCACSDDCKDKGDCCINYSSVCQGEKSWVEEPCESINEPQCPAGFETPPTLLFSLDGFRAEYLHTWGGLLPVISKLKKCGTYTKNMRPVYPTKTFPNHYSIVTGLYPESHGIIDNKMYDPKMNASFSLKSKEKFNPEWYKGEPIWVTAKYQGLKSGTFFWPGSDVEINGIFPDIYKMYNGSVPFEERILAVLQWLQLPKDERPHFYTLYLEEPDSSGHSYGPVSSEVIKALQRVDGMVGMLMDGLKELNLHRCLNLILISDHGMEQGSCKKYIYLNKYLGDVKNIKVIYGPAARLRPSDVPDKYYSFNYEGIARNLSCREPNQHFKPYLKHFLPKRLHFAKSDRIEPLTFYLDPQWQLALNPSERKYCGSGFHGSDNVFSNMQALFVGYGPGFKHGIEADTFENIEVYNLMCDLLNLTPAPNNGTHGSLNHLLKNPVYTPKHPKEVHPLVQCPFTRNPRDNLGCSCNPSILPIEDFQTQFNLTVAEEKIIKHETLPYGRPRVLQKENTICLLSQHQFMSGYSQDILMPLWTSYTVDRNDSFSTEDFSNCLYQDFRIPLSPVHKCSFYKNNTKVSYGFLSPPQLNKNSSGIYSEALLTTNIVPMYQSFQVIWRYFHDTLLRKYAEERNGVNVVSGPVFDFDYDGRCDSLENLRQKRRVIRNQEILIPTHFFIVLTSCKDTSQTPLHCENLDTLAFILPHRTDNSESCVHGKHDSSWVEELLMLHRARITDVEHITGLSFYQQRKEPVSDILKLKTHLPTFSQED
Assay type: biochemical
Procedure: p-Nitrophenyl thymidine 5′-monophosphate (pNP-TMP) is a synthesized substrate for ENPP1. The ENPP1 enzyme activity assay with pNP-TMP substrate was conducted as follows:
Incubation of ENPP1 with compounds was set at 25° C. for 10 min. […] For each compound dilution, wells with assay buffer (50 mM Tris-HCl, pH8.8, 250 mM NaCl, 0.1 mg/ml BSA, 1% DMSO) only but no ENPP1 were included as controls for subtraction of test compound derived absorbance at 405 nm.
Absorbance at 405 nm was recorded immediately in kinetic mode by PerkinElmer 2300 Enspire multimode plate reader.
For each inhibitor, the specific ENPP1 activity was calculated using the following equation: ENPP1 activity (pmol/min/g)=Adjusted Vmax (OD405 nm/min) X conversion factor (pmol/OD405 nm)/amount of enzyme (g)
Adjusted Vmax=V0×(Km+(S))/(S).
V0=(OD405 nm with ENPP1−OD405 nm ENPP1 blank)/minutes. OD405 nm was plotted, with blank subtracted, against time (minutes), the initial linear rate is V0. […]
The slope is the conversion factor. The percent ENPP1 activity for each sample was calculated using the following equation:
% enzyme activity=sample enzyme activity/MAX Activity×100%.
To determine the IC50 for each compound, compound concentration values and percent enzyme activity values were inserted into GraphPad Prism (GraphPad Prism version 7.0 for Windows, GraphPad Software, La Jolla California USA, www.graphpad.com), and Prism's Transform analysis was used to convert the x-axis values (compound concentration) to logarithms. A sigmoidal variable slope nonlinear regression analysis was performed using the following equation: Y=Bottom+(Top−Bottom)/(1+10^((LogIC50−X)*HillSlope)).

| Ki [nM] | SMILES |
| --- | --- |
| > 10000 | O=C(Nc1csc2c(NCc3ccc(B(O)O)cc3)ncnc12)c1ccccc1 [compound 24, 4-[([7-benzamidothieno[3,2-d]pyrimidin-4-yl]amino)-methyl]phenylboronic acid] |
| < 1000 | CN(C)C(=O)c1c[nH]c2c(NCc3ccc(B(O)O)cc3)ncnc12 [compound 11, 4-([[7-(dimethylcarbamoyl)-5H-pyrrolo[3,2-d]pyrimidin-4-yl]-amino]methyl)phenylboronic acid] |
| < 100 | NC(=O)c1csc2c(NCc3ccc(B(O)O)cc3)ncnc12 [compound 39, 4-[([7-carbamoylthieno[3,2-d]pyrimidin-4-yl]amino)-methyl]phenylboronic acid] |
| < 100 | Cn1ncc2nc(-c3cnccn3)nc(NCc3ccc(B(O)O)cc3)c21 [compound 33, 4-([[1-methyl-5-(pyrazin-2-yl)pyrazolo[4,3-d]pyrimidin-7-yl]amino]methyl)-phenylboronic acid] |
| < 100 | Cn1ccc2ncnc(NCc3ccc(B(O)O)cc3)c21 [compound 1, 4-[([5-methylpyrrolo[3,2-d]pyrimidin-4-yl]amino)-methyl]phenylboronic acid; formic acid] |
| < 1000 | Cn1ncc2nc(-c3cccnc3)nc(NCc3ccc(B(O)O)cc3)c21 [compound 31, 4-([[1-methyl-5-(pyridin-3-yl)pyrazolo[4,3-d]pyrimidin-7-yl]amino]methyl)-phenylboronic acid] |
| < 100 | Cn1ncc2ncnc(NCc3ccc(B(O)O)cc3)c21 [compound 18, 4-[([1-methylpyrazolo[4,3-d]pyrimidin-7-yl]amino)methyl]-phenylboronic acid] |
| < 100 | Cn1ncc2nc(-c3ccncc3)nc(NCc3ccc(B(O)O)cc3)c21 [compound 32, 4-([[1-methyl-5-(pyridin-4-yl)pyrazolo[4,3-d]pyrimidin-7-yl]amino]methyl)phenylboronic acid] |
| < 100 | CNC(=O)c1csc2c(NCc3ccc(B(O)O)cc3)ncnc12 [compound 12, 4-([[7-(methylcarbamoyl)thieno[3,2-d]pyrimidin-4-yl]-amino]methyl)phenylboronic acid] |
| < 100 | OB(O)c1ccc(CNc2ncnc3ccsc23)cc1 [compound 26, 4-([thieno[3,2-d]pyrimidin-4-ylamino]methyl)phenyl-boronic acid.] |
| < 1000 | CC(C)c1nc(NCc2ccc(B(O)O)cc2)c2[nH]ncc2n1 [compound 27, 4-[([5-isopropyl-1H-pyrazolo[4,3-d]pyrimidin-7-yl]-amino)methyl]phenylboronic acid formic acid salt] |
| < 1000 | O=CNc1csc2c(C#Cc3ccc(B(O)O)cc3)ncnc12 [compound 36, 4-(2-[7-formamidothieno[3,2-d]pyrimidin-4-yl]ethynyl)-phenylboronic acid] |
| < 10000 | OB(O)c1ccc(CNc2ncnc3cc[nH]c23)cc1 [Cpd. 4, 4-([5H-pyrrolo[3,2-d]pyrimidin-4-ylamino]methyl)phenyl-boronic acid] |
| < 100 | CNC(=O)c1c[nH]c2c(NCc3ccc(B(O)O)cc3)ncnc12 [compound 17, 4-([[7-(methylcarbamoyl)-5H-pyrrolo[3,2-d]pyrimidin-4-yl]amino]methyl)phenylboronic acid; formic acid] |
| < 1000 | Cn1ncc2nc(-c3ccccc3)nc(NCc3ccc(B(O)O)cc3)c21 [compound 29, 4-[([1-methyl-5-phenylpyrazolo[4,3-d]pyrimidin-7-yl]-amino)-methyl]phenylboronic acid] |
| < 1000 | CCC(=O)Nc1csc2c(NCc3ccc(B(O)O)cc3)ncnc12 [compound 3, 4-[([7-propanamidothieno[3,2-d]pyrimidin-4-yl]amino)-methyl]phenylboronic acid] |
| < 100 | CC(=O)Nc1csc2c(NCc3ccc(B(O)O)cc3)ncnc12 [Cpd. 8, 4-[([7-acetamidothieno[3,2-d]pyrimidin-4-yl]amino)-methyl]phenylboronic acid] |

| Ki [nM] | SMILES |
| --- | --- |
| < 10000 | OB(O)c1ccc(CNc2ncnc3nc[nH]c23)cc1 [compound 20, 4-[(7H-purin-6-ylamino)methyl]phenylboronic acid] |
| < 100 | Cn1cnc2ncnc(NCc3ccc(B(O)O)cc3)c21 [compound 19, 4-[[(7-methylpurin-6-yl)amino]methyl]phenylboronic acid] |
| < 100 | OB(O)c1ccc(CNc2ccnc3cn[nH]c23)cc1 [compound 37, 4-([1H-pyrazolo[4,3-b]pyridin-7-ylamino]methyl)phenyl-boronic acid] |
| < 1000 | Cc1nc(NCc2ccc(B(O)O)cc2)c2c(cnn2C)n1 [compound 5, 4-[([1,5-dimethylpyrazolo[4,3-d]pyrimidin-7-yl]amino)-methyl]phenylboronic acid] |
| < 1000 | CC(=O)Nc1cn(C)c2c(NCc3ccc(B(O)O)cc3)ncnc12 [Cpd. 2, 4-[([7-acetamido-5-methylpyrrolo[3,2-d]pyrimidin-4-yl]-amino)methyl]phenylboronic acid] |
| < 1000 | CC(C)NC(=O)c1c[nH]c2c(NCc3ccc(B(O)O)cc3)ncnc12 [compound 14, 4-([[7-(isopropylcarbamoyl)-5H-pyrrolo[3,2-d]pyrimidin-4-yl]amino]methyl)phenylboronic acid] |
| < 1000 | NC(=O)c1c[nH]c2c(NCc3ccc(B(O)O)cc3)ncnc12 [compound 16, 4-[([7-carbamoyl-5H-pyrrolo[3,2-d]pyrimidin-4-yl]amino)-methyl]phenylboronic acid] |
| > 10000 | CC(C)C(=O)Nc1csc2c(NCc3ccc(B(O)O)cc3)ncnc12 [compound 23, 4-([[7-(2-methylpropanamido)thieno[3,2-d]pyrimidin-4-yl]-amino]methyl)phenylboronic acid] |
| < 100 | CCNC(=O)c1c[nH]c2c(NCc3ccc(B(O)O)cc3)ncnc12 [compound 10, 4-([[7-(ethylcarbamoyl)-5H-pyrrolo[3,2-d]pyrimidin-4-yl]-amino]methyl)phenylboronic acid; formic acid] |
| < 100 | Cn1ncc2nc(/C=C/c3cccnc3)nc(NCc3ccc(B(O)O)cc3)c21 [compound 35, 4-[([1-methyl-5-[(E)-2-(pyridin-3-yl)ethenyl]pyrazolo[4,3-d]pyrimidin-7-yl]amino)methyl]phenylboronic acid] |
| < 100 | Cn1ncc2nc(-c3ccccn3)nc(NCc3ccc(B(O)O)cc3)c21 [compound 30, 4-([[1-methyl-5-(pyridin-2-yl)pyrazolo[4,3-d]pyrimidin-7-yl]amino]-methyl)phenylboronic acid] |
| < 100 | COC(=O)c1csc2c(NCc3ccc(B(O)O)cc3)ncnc12 [compound 38, 4-([[7-(methoxycarbonyl)thieno[3,2-d]pyrimidin-4-yl]-amino]methyl)-phenylboronic acid] |
| < 10000 | O=C(NCCO)c1c[nH]c2c(NCc3ccc(B(O)O)cc3)ncnc12 [compound 13, 4-[([7-[(2-hydroxyethyl)carbamoyl]-5H-pyrrolo[3,2-d]-pyrimidin-4-yl]amino)methyl]phenylboronic acid] |
| < 100 | N#Cc1csc2c(NCc3ccc(B(O)O)cc3)ncnc12 [compound 40, 4-[([7-cyanothieno[3,2-d]pyrimidin-4-yl]amino)-methyl]phenylboronic acid] |
| < 100 | OB(O)c1ccc(CNc2ncnc3cn[nH]c23)cc1 [compound 9, 4-([1H-pyrazolo[4,3-d]pyrimidin-7-ylamino]methyl)-phenylboronic acid] |
| < 1000 | OB(O)c1ccc(CNc2nc(-c3ccccc3)nc3cn[nH]c23)cc1 [compound 28, 4-[([5-phenyl-1H-pyrazolo[4,3-d]pyrimidin-7-yl]amino)-methyl]phenylboronic acid] |
